Laboratory results: patent US8846949B2, “Pyrrolopyrazoles as N-type calcium channel blockers” (Janssen Pharmaceutica NV, priority 2012, dated 2014)
Where two headings read alike, the source gives them in different places.

Tests used:
[1] = target: T1, N-type calcium channel (Homo sapiens, UniProt Q00975); assay: Automated electrophysiology assay (QPatch-HT whole-cell patch clamp); assay type: cell-based
T1 construct: expressed in transfected cells
Protocol: Cells were grown in T175 flasks to 50%-90% confluence. At the time of use, cells were enzymatically treated with Detachin (Genlantis, San Diego, Calif. USA), centrifuged, rinsed, and resuspended in 293 SFM II media (Life Technologies, Grand Island, N.Y. U.S.A.) supplemented with 25 mM HEPES (Sigma-Aldrich, St. Louis, Mo. U.S.A.) to a concentration of 2-3×10^6 cells/mL. Cells were added to the automated cell preparation station on the QPatch-HT (Sophion Biosciences, North Brunswick, N.J. U.S.A.), and following a 10- to 30-min recovery period with gentle stirring, the assay protocol was initiated. During the automated cell preparation, cells were collected, centrifuged and resuspended in an extracellular (EC) solution containing 132 mM NaCl, 1.8 mM CaCl2, 5.4 mM KCl, 0.8 mM MgCl2, 10 mM glucose, and 10 mM HEPES (pH=7.4), adjusted with sucrose to approximately 315 m0sm. The QPlate was primed with an intracellular solution containing 135 mM CsCl, 10 mM EGTA, 4 MgATP, 0.3 NaGTP, and 20 mM HEPES (pH=7.2), adjusted to approximately 290 m0sm with deionized water and the EC solution. Cells were added to the prepared QPlate wells by robotic pipettes of the QPatch-HT.
For cells determined to be in stable whole-cell patch clamp, the EC solution was replaced with a barium (Ba)/triethylammonium (TEA) solution containing 140 mM TEA-Cl, 10 mM BaCl2, 0.8 mM MgCl2, 10 mM glucose and 10 mM HEPES (pH=7.4). High (40 mM) BaCl2 concentrations were made with adjustments to TEA-C1 (90 mM) to maintain the osmolarity. From a resting potential of −80 mV, a train of depolarizing pulses (15 pulses at 5 Hz, +20 mV) was delivered to the cell once every 30 sec for eight trains (4 min total), and the resulting currents were measured during a control period (no compound). This protocol was repeated for each subsequent addition of control buffer with or without compound (three periods total, each with four trains). The current generated in the 1st and 15th pulses of the last train of each period in the presence of each drug concentration was normalized to the current generated during the control period at the respective pulses (representing low- and high-frequency stimulation, respectively). Data from both the second and third drug application periods were analyzed for each cell. A final addition of Ba/TEA solution containing 60-100 μM CdCl2 was made to block all N-type current and to “zero” the currents for each cell. All buffer/compound additions were made using a “spitting” feature of the QPatch-HT, which added three repetitions of 5 μL solution at the beginning of each recording period.
To examine closed-state inactivation, cells were subjected to a channel-activating 50-msec depolarizing step pulse from −80 to +10 mV, followed by a 5-sec nonactivating step to voltages ranging from −130 to −60 mV in 10 mV increments and then a 50-ms step from −80 to +10 mV to assess the remaining current. Currents from the activating voltage pulse were normalized to the peak value of the test pulse following the −130 mV step and fit to a Boltzman equation to obtain the V1/2. Roscovitine (Sigma-Aldrich) was prepared as a 100 mM stock in dimethyl sulfoxide and diluted to the indicated working concentrations. […]. Compounds of Formula (I) were diluted first into dimethyl sulfoxide and then into 10% pluronic F-127 in water (Life Technologies), sonicated for 1 min and diluted into EC buffer. Vehicle controls were run in parallel in all experiments.
Unless otherwise indicated, statistics for comparing among electrophysiological results utilized a one-way analysis of variance with Fisher's least squares determination test for pair-wise comparison.

[2] = target: T2, N-type calcium channel α1B (Cav2.2), β3 and α2δ subunits (Homo sapiens, UniProt Q00975); assay: Functional assay, antagonism of N-type calcium channel (FDSS calcium mobilization response to KCl depolarization); assay type: cell-based; conditions: for IC50: HEK stable cell line, 50 mM KCl depolarization, six-point concentration-response
T2 construct: expressed in transfected cells
T2 sequence (Q00975 whole entry): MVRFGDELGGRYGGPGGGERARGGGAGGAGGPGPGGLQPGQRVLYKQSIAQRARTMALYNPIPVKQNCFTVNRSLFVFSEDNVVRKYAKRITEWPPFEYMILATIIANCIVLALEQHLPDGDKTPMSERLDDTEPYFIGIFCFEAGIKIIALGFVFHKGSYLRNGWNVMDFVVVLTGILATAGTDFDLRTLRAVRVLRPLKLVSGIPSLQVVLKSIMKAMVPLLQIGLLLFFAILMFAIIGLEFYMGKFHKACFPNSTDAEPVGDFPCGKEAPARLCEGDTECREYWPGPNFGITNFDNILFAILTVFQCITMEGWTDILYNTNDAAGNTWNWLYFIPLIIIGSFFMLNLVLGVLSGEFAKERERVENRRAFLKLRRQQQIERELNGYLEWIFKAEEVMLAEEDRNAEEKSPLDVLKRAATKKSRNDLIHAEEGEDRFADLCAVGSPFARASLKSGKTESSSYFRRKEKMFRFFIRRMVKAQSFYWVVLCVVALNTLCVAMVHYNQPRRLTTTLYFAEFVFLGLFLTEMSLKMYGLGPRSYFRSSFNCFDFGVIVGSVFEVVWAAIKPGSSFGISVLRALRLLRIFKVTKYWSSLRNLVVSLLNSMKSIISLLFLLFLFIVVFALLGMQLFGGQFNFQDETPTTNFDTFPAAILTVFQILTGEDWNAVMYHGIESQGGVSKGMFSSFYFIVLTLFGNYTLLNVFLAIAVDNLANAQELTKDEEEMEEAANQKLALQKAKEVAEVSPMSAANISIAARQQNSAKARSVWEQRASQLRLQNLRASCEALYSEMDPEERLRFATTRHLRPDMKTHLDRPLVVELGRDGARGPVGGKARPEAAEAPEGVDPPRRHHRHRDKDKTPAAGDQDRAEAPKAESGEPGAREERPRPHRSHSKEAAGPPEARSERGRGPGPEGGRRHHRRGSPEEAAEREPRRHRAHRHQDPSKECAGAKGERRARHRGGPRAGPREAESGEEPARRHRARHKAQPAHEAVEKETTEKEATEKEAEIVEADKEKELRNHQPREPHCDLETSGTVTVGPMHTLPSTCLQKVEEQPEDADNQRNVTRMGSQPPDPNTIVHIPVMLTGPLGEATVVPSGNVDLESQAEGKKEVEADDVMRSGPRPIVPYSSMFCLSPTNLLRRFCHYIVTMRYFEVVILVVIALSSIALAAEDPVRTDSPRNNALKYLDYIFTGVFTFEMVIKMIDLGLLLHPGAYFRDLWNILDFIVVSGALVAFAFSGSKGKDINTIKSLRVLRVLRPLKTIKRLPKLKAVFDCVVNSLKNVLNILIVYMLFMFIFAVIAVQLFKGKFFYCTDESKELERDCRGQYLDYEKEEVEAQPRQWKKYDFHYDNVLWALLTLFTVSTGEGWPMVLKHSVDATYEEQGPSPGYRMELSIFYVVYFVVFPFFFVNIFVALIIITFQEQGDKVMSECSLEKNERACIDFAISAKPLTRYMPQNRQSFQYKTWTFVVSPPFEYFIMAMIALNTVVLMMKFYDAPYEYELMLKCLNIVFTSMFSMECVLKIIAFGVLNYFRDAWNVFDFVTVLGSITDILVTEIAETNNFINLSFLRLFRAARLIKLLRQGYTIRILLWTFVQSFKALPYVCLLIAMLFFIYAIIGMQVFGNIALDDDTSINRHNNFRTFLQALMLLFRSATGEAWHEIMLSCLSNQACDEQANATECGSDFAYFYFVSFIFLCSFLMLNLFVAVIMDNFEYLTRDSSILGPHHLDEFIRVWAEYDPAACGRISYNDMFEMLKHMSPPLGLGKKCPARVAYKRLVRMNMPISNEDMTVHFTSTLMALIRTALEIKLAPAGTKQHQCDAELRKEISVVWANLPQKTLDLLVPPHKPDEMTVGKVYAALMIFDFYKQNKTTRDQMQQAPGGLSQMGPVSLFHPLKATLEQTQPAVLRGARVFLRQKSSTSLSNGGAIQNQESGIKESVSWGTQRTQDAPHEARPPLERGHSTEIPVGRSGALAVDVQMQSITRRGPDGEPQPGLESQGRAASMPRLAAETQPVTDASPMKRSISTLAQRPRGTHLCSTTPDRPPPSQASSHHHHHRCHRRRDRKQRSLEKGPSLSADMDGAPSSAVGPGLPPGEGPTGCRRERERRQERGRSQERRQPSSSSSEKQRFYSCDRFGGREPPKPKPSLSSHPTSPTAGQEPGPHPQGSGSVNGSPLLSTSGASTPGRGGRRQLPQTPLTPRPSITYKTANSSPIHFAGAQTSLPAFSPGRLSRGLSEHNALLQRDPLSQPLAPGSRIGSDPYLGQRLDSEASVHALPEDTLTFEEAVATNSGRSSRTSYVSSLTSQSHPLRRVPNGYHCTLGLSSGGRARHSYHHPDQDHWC
T2 sequence (P54284 whole entry partner): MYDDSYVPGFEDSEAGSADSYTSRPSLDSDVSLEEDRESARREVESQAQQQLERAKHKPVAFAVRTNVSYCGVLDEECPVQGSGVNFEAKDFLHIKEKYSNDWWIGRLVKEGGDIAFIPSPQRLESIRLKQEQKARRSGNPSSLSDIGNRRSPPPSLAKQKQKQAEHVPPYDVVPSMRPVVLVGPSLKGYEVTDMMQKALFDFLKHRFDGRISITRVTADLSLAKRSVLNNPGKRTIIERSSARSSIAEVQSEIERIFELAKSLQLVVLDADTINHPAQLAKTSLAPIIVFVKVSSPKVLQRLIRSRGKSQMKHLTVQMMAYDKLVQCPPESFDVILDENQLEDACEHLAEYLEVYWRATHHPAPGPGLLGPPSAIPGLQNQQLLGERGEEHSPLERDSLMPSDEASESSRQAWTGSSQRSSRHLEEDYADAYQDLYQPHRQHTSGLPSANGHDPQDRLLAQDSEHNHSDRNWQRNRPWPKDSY
T2 sequence (P54289 25-956 partner limits assumed): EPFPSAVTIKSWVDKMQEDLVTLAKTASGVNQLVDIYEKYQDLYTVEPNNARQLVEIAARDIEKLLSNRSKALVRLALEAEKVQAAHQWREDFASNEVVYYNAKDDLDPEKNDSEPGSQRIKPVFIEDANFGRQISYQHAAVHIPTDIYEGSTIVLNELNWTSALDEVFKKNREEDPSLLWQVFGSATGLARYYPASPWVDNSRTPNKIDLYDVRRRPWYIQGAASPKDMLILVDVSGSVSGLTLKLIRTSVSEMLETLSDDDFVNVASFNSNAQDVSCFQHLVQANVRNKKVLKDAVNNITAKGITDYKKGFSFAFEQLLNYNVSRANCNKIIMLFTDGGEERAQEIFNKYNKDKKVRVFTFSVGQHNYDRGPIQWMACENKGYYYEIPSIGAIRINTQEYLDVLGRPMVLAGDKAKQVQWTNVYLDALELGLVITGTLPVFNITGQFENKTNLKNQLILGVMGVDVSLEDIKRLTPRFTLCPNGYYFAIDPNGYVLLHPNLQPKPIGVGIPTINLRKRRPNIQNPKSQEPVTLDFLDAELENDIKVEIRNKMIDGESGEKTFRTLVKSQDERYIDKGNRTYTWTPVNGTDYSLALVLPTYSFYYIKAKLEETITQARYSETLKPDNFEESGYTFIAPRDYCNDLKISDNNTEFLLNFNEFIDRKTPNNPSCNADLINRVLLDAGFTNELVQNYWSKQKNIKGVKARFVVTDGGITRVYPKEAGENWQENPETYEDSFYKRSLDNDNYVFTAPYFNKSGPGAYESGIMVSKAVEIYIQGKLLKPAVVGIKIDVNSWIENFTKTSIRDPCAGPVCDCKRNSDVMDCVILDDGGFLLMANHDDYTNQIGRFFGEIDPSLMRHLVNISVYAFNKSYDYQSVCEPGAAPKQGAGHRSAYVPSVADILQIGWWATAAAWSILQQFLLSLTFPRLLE
T2 sequence (P54289 957-1103 partner limits assumed): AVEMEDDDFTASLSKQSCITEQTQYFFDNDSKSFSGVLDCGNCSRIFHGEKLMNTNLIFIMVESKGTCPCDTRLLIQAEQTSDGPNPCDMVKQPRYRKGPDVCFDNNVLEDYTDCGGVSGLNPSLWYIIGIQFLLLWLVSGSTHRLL
Protocol: A stable cell line (HEK parent) co-expressing the α1B (Cav2.2), β3 and α2δ subunits of the N-type calcium channel subunits was used. These cells were routinely grown as monolayers in low glucose-containing Dulbecco's Modified Eagle Medium supplemented with 10% FBS, 2 mM L-glutamine, 100 I.U./mL penicillin, 100 μg/mL streptomycin, 400 μg/mL G418 and 200 μg/mL Zeocin (split ratio=1:5). Cells were maintained in 5% CO2 at 37° C. Compounds of Formula (I) were prepared as 10 mM stocks in DMSO from neat compound, if available. Otherwise, the 5 or 10 mM DMSO stock solutions provided in-house were used.
Calcium mobilization responses to KCl depolarization were evaluated by measuring the intensity of calcium-mediated fluorescent signal in the presence of BD Calcium Assay Dye (BD Biosciences, Franklin Lakes, N.J., U.S.A.), utilizing a Functional Drug Screening System (FDSS) by Hamamatsu Corporation (Bridgewater, N.J. U.S.A.).
Twenty-four hr prior to assay, cells were seeded in clear-base poly-D-lysine-coated 384-well plates (BD Biosciences) at a density of 5,000 cells per well in culture medium and grown overnight in 5% CO2 at 37° C. On the day of assay, growth media were removed, and cells were loaded with BD calcium assay dye (BD Biosciences) for 35 min at 37° C. under 5% CO2 and then for 25 min at room temp. Utilizing the FDSS, cells were exposed to representative compounds of Formula (I) at varying concentrations, and intracellular calcium was measured for 5 min prior to the addition of 50 mM KCl for an additional 3 min of measurement.
IC50 values for representative compounds of Formula (I) were determined from six-point concentration-response experiments and represent the concentration of said compound required to inhibit 50% of the maximal response. Maximal fluorescence intensity (FI) achieved upon addition of 50 mM KCl was exported from the FDSS software and further analyzed using GraphPad Prism 3.02 (Graph Pad Software Inc., San Diego, Calif., U.S.A.). Data were normalized to the maximum average counts from quadruplicate wells for each condition in the presence of 50 mM KCl and to the minimum average counts in the presence of buffer. Theoretical curves were generated using nonlinear regression curve-fitting analysis of either sigmoidal concentration-response or sigmoidal concentration-response (variable slope), and the IC50 values with the best-fit curve determined by GraphPad Prism were reported.

[3] = high frequency (15th pulse of train, 5 Hz), read-out: QPatch at High Frequency % Inhibition
[4] = low frequency (1st pulse of train), read-out: QPatch at Low Frequency % Inhibition
[5] = 1 μM, high frequency (15th pulse of train, 5 Hz), read-out: QPatch at High Frequency % Inhibition
[6] = 1 μM, low frequency (1st pulse of train), read-out: QPatch at Low Frequency % Inhibition

T1 sequence (Q00975 whole entry): as the sequence (Q00975 whole entry) above
T1 sequence (P54284 whole entry partner): as the sequence (P54284 whole entry partner) above
T1 sequence (P54289 25-956 partner limits assumed): as the sequence (P54289 25-956 partner limits assumed) above
T1 sequence (P54289 957-1103 partner limits assumed): as the sequence (P54289 957-1103 partner limits assumed) above

SMILES | IC50 [2] | inhibition at 1 µM [1, 5] | inhibition at 1 µM [1, 6] | also measured
CCc1ccccc1-n1nc2c(c1-c1ccc(Cl)cc1)CN(S(C)(=O)=O)C2 [Cpd 2, 3-(4-Chlorophenyl)-2-(2-ethylphenyl)-5-(methylsulfonyl)-2,4,5,6-tetrahydropyrrolo[3,4-c]pyrazole] | 85 nM | 22% | -9% | –
CCc1ccccc1-n1nc2c(c1-c1ccc(Cl)cc1)CN(C(=O)c1ccncc1)C2 [Cpd 5, 3-(4-Chlorophenyl)-2-(2-ethylphenyl)-5-(pyridin-4-ylcarbonyl)-2,4,5,6-tetrahydropyrrolo[3,4-c]pyrazole] | 200 nM | 37% | 11% | inhibition at 0.25 µM [1, 3]: 12%; inhibition at 0.25 µM [1, 4]: 0%
CCc1ccccc1-n1nc2c(c1-c1ccc(Cl)cc1)CN(C(=O)C(F)(F)F)C2 [Cpd 6, 3-(4-Chlorophenyl)-2-(2-ethylphenyl)-5-(trifluoroacetyl)-2,4,5,6-tetrahydropyrrolo[3,4-c]pyrazole] | 180 nM | 23% | 16% | –
CCc1ccccc1-n1nc2c(c1-c1ccc(Cl)cc1)CN(C(=O)CNC(=O)OC(C)(C)C)C2 [Cpd 11, tert-Butyl{2-[3-(4-chlorophenyl)-2-(2-ethylphenyl)-2,6-dihydropyrrolo[3,4-c]pyrazol-5 (4H)-yl]-2-oxoethyl}carbamate] | 100 nM | 68% | 37% | inhibition at 0.25 µM [1, 3]: 31%; inhibition at 0.25 µM [1, 4]: 14%
CS(=O)(=O)N1Cc2nn(-c3ccccc3OC(F)(F)F)c(-c3ccc(Cl)cc3)c2C1 [Cpd 20, 3-(4-Chlorophenyl)-5-(methylsulfonyl)-2-[2-(trifluoromethoxy)phenyl]-2,4,5,6-tetrahydropyrrolo[3,4-c]pyrazole] | 40 nM | 30% | 5% | –
COc1ccccc1-n1nc2c(c1-c1ccc(Cl)cc1)CN(C(=O)OC(C)(C)C)C2 [Cpd 28, tert-Butyl 3-(4-chlorophenyl)-2-(2-methoxyphenyl)-2,6-dihydropyrrolo[3,4-c]pyrazole-5(4H)-carboxylate] | 73 nM | – | – | inhibition at 1 µM ([1]; read-out: QPatch at High Frequency % Inhibition): 52%; inhibition at 1 µM ([1]; read-out: QPatch at Low Frequency % Inhibition): 25%

Further lines, with some results ahead:

IC50 [2] | inhibition at 1 µM [1, 5] | inhibition at 1 µM [1, 6] | SMILES | also measured
5 nM | – | – | COc1ccccc1-n1nc2c(c1-c1ccc(Cl)cc1)CN(S(=O)(=O)N1C[C@H](C)O[C@@H](C)C1)C2 (mixture of isomers) [Cpd 61, 3-(4-Chlorophenyl)-5-{[(2S,6S)-2,6-dimethylmorpholin-4-yl]sulfonyl}-2-(2-methoxyphenyl)-2,4,5,6-tetrahydropyrrolo[3,4-c]pyrazole] | inhibition at 0.1 µM [1, 3]: 50%; inhibition at 0.1 µM [1, 4]: 53%
240 nM | 28% | 13% | CC(C)(C)OC(=O)NCC(=O)N1Cc2nn(-c3ccccc3OC(F)(F)F)c(-c3ccc(Cl)cc3)c2C1 [Cpd 22, tert-Butyl{2-[3-(4-chlorophenyl)-2-[2-(trifluoromethoxy)phenyl]-2,6-dihydropyrrolo[3,4-c]pyrazol-5(4H)-yl]-2-oxoethyl}carbamate] | –
93 nM | – | -1% | FC(F)(F)Oc1ccccc1-n1nc2c(c1-c1ccc(Cl)cc1)CN(c1ccc3nc(Cl)ccc3c1)C2 [Cpd 27, 2-Chloro-6-[3-(4-chlorophenyl)-2-[2-(trifluoromethoxy)phenyl]-2,6-dihydropyrrolo[3,4-c]pyrazol-5(4H)-yl]quinoline] | –
21 nM | 49% | 28% | COc1ccccc1-n1nc2c(c1-c1ccc(Cl)cc1)CN(S(C)(=O)=O)C2 [Cpd 30, 3-(4-Chlorophenyl)-2-(2-methoxyphenyl)-5-(methylsulfonyl)-2,4,5,6-tetrahydropyrrolo[3,4-c]pyrazole] | –
10 nM | – | – | COc1ccccc1-n1nc2c(c1-c1ccc(Cl)cc1)CN(S(=O)(=O)C(C)C)C2 [Cpd 31, 3-(4-Chlorophenyl)-2-(2-methoxyphenyl)-5-[(1-methylethyl)sulfonyl]-2,4,5,6-tetrahydropyrrolo[3,4-c]pyrazole] | inhibition at 0.1 µM [1, 3]: 47%; inhibition at 0.1 µM [1, 4]: 11%; inhibition at 0.33 µM ([2]; 0.33 μM compound, FDSS, 50 mM KCl): 94%
